According to patent US20230017045A1, “PYRIDINE AND PYRIMIDINE CARBOXYLATE HERBICIDES AND METHODS OF USE THEREOF” (Dow AgroSciences LLC, priority 2017, published 2023):
Read-outs that look alike come from different tables or passages of the source.

System: test plant species
Experiment: Post-emergent herbicidal activity test (greenhouse, foliar spray, visual growth reduction)
Assay type: in vivo
Conditions: post-emergence, 336 h, 140 g ai/ha
Summary of the method: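 Greenhouse plants at first–second true leaf stage sprayed overhead at 187 L/ha with compound in acetone/water/isopropanol/DMSO/crop oil/X-77 carrier; controls received solvent blank. Injury rated visually after 14 d on a 0–100% scale versus untreated and control plants, converted to growth reduction.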

[1] = ALOMY: blackgrass (Alopecurus myosuroides), 14 days after application, read-out: Visual Growth Reduction (%) 14 Days After Application, ALOMY
[2] = AMARE: redroot pigweed (Amaranthus retroflexus), 14 days after application, read-out: Visual Growth Reduction (%) 14 Days After Application, AMARE
[3] = AVEFA: wild oat (Avena fatua), 14 days after application, read-out: Visual Growth Reduction (%) 14 Days After Application, AVEFA
[4] = CHEAL: lambsquarters (Chenopodium album), 14 days after application, read-out: Visual Growth Reduction (%) 14 Days After Application, CHEAL
[5] = CIRAR: canada thistle (Cirsium arvense), 14 days after application, read-out: Visual Growth Reduction (%) 14 Days After Application, CIRAR
[6] = CYPES: yellow nutsedge (Cyperus esculentus), 14 days after application, read-out: Visual Growth Reduction (%) 14 Days After Application, CYPES
[7] = DIGSA: crabgrass (Digitaria sanguinalis), 14 days after application, read-out: Visual Growth Reduction (%) 14 Days After Application, DIGSA
[8] = ECHCG: barnyardgrass (Echinochloa crus-galli), 14 days after application, read-out: Visual Growth Reduction (%) 14 Days After Application, ECHCG
[9] = IPOHE: ivy-leaf morning glory (Ipomoea hederacea), 14 days after application, read-out: Visual Growth Reduction (%) 14 Days After Application, IPOHE
[10] = KCHSC: kochia (Bassia scoparia), 14 days after application, read-out: Visual Growth Reduction (%) 14 Days After Application, KCHSC
[11] = ORYSA: rice (Oryza sativa), 14 days after application, read-out: Visual Growth Reduction (%) 14 Days After Application, ORYSA
[12] = SETFA: giant foxtail (Setaria faberi), 14 days after application, read-out: Visual Growth Reduction (%) 14 Days After Application, SETFA
[13] = SORVU: grain sorghum (Sorghum vulgare), 14 days after application, read-out: Visual Growth Reduction (%) 14 Days After Application, SORVU
[14] = STEME: common chickweed (Stellaria media), 14 days after application, read-out: Visual Growth Reduction (%) 14 Days After Application, STEME
[15] = TRZAS: wheat, spring (Triticum aestivum), 14 days after application, read-out: Visual Growth Reduction (%) 14 Days After Application, TRZAS
[16] = blackgrass (Alopecurus myosuroides), 14 Days After Application, read-out: Visual Growth Reduction (%) ALOMY
[17] = canada thistle (Cirsium arvense), 14 Days After Application, read-out: Visual Growth Reduction (%) CIRAR
[18] = crabgrass (Digitaria sanguinalis), 14 Days After Application, read-out: Visual Growth Reduction (%) DIGSA
[19] = lambsquarters (Chenopodium album), 14 Days After Application, read-out: Visual Growth Reduction (%) CHEAL
[20] = redroot pigweed (Amaranthus retroflexus), 14 Days After Application, read-out: Visual Growth Reduction (%) AMARE
[21] = wild oat (Avena fatua), 14 Days After Application, read-out: Visual Growth Reduction (%) AVEFA
[22] = yellow nutsedge (Cyperus esculentus), 14 Days After Application, read-out: Visual Growth Reduction (%) CYPES

Structure (SMILES)	pest or weed control at 140 g/ha [1] [%]	pest or weed control at 140 g/ha [2] [%]	pest or weed control at 140 g/ha [3] [%]	pest or weed control at 140 g/ha [4] [%]	pest or weed control at 140 g/ha [5] [%]	pest or weed control at 140 g/ha [6] [%]	pest or weed control at 140 g/ha [7] [%]	pest or weed control at 140 g/ha [8] [%]	pest or weed control at 140 g/ha [9] [%]	pest or weed control at 140 g/ha [10] [%]	pest or weed control at 140 g/ha [11] [%]	pest or weed control at 140 g/ha [12] [%]	pest or weed control at 140 g/ha [13] [%]	pest or weed control at 140 g/ha [14] [%]	pest or weed control at 140 g/ha [15] [%]	pest or weed control at 140 g/ha [16] [%]	pest or weed control at 140 g/ha [17] [%]	pest or weed control at 140 g/ha [18] [%]	pest or weed control at 140 g/ha [19] [%]	pest or weed control at 140 g/ha [20] [%]	also measured
O=C(O)c1nc(-c2ccc(SC(F)(F)F)cc2Cl)c(Cl)cc1Cl [F127, 3,5-Dichloro-6-(2-chloro-4-((trifluoromethyl)thio)phenyl) picolinic acid]	0 to 29	95 to 100	0 to 29	75 to 84	85 to 94	0 to 29	60 to 74	0 to 29	45 to 59	75 to 84	0 to 29	75 to 84	60 to 74	0 to 29	0 to 29	–	–	–	–	–	–
COC(=O)c1nc(-c2ccc(OS(C)(=O)=O)cc2F)c(F)cc1Cl [F343]	–	–	–	–	–	–	–	85 to 94	95 to 100	85 to 94	30 to 44	85 to 94	95 to 100	0 to 29	60 to 74	0 to 29	95 to 100	85 to 94	85 to 94	95 to 100	pest or weed control at 140 g/ha [21]: 30 to 44%; pest or weed control at 140 g/ha [22]: 30 to 44%
COC(=O)c1nc(-c2ccc(Cl)cc2)ccc1Cl [F82, methyl 3-chloro-6-(4-chlorophenyl)picolinate]	0 to 29	95 to 100	0 to 29	60 to 74	75 to 84	75 to 84	0 to 29	0 to 29	75 to 84	60 to 74	0 to 29	–	0 to 29	30 to 44	–	–	–	–	–	–	–
O=C(O)c1nc(-c2ccc(C(F)(F)F)cc2Cl)ccc1[N+](=O)[O-] [F252, 6-(2-Chloro-4-(trifluoromethyl)phenyl)-3-nitropicolinic acid]	–	–	–	–	–	–	–	0 to 29	30 to 44	0 to 29	0 to 29	0 to 29	45 to 59	0 to 29	0 to 29	0 to 29	0 to 29	30 to 44	60 to 74	0 to 29	pest or weed control at 140 g/ha [21]: 0 to 29%; pest or weed control at 140 g/ha [22]: 0 to 29%
